Data taken from PMC9267128, “New 2-[(4-Amino-6-N-substituted-1,3,5-triazin-2-yl)methylthio]-N-(imidazolidin-2-ylidene)-4-chloro-5-methylbenzenesulfonamide Derivatives, Design, Synthesis and Anticancer Evaluation” (International Journal of Molecular Sciences, 2022).

Tests used:
[1] = tested on: HaCaT (human keratinocyte cell line); test: MTT cell viability assay, non-cancerous HaCaT; assay type: cell-based; details: Homo sapiens, HaCaT, 72 h, 72 h of incubation, non-cancerous keratinocytes
Procedure, shortened: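 Cells in DMEM with 10% FBS, 3 × 10^3 per well, exposed to compounds at 1–100 µM for 72 h at 37 °C. MTT at 0.5 mg/mL for 2 h, formazan dissolved in DMSO and read at 550 nm. Mean ± SD of at least three independent experiments, each in triplicate.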

[2] = tested on: MCF7 (breast cancer cell line, ATCC, HTB-22); test: MTT assay, wild-type p53 breast cancer cells MCF-7 (Table 11); assay type: cell-based, human; details: Homo sapiens, MCF7; 72 h of incubation, wild-type p53, second determination
Description: Thus, the ability of the selected compounds to exert cytotoxic activity toward cell lines harboring mutant p53 was examined. Compounds displaying a high selectivity index (Table 6) were selected for the analysis of their activity toward ovarian and breast cancer cells with wild-type p53 (A2780, MCF-7) and mutant p53 (SKOV-3, T47D).
Cell viability was examined using the MTT [3-(4,5-dimethylthiazol-2-yl)-2,5-diphenyltetrazolium bromide] assay. Cells were seeded in 96-well plates at a density of 3 × 10^3 cells/well and treated for 72 h with the tested compounds in the concentration range of 1–100 µM. Then, MTT (0.5 mg/mL) was added to the medium and cells were further incubated for 2 h at 37 °C. In the next stage, cells were lysed with DMSO and the absorbance of the formazan solution was measured at 550 nm with a plate reader (1420 multilabel counter, Victor, Jügesheim, Germany). The experiment was performed in triplicate. Values are expressed as the mean ± SD of at least three independent experiments. Cisplatin was used as a positive control.
Compounds 48, 62, 134, 138 and 140 were further examined toward MCF7 (breast cancer cell line, ATCC, HTB-22), T47D (breast cancer cell line, DSMZ ACC 739), A2780 (ovarian carcinoma cell line, ECACC, 93112519), and SKOV3 (ovarian carcinoma cell line, ATCC, HTB-77) cells. Cells were grown in Dulbecco’s Modified Eagle Medium (DMEM) supplemented with 10% fetal bovine serum (Thermo Fisher Scientific).

MCF-7 cells = test: Cell cycle analysis by flow cytometry (PI staining) in MCF-7 cells; assay type: cell-based, human; details: 48 h; for G0/G1 phase population of the cell cycle: MCF-7, 10 µM; for sub-G1 population of the cell cycle: MCF-7, 5, 10, 25 µM
Description: P53 controls cell proliferation through the regulation of the cell cycle. In order to determine p53-independent cell cycle arrest, the influence of selected compounds on the cell cycle distribution in MCF-7 cells was analyzed. Cells were treated with a concentration range of two selected compounds (140 and 48) for 48 h. Cell cycle distribution was analyzed with flow cytometry. […] Compound 140 at the lower concentration of 10 µM increased the G0/G1 population, whereas at the higher examined concentration of 25 µM, an increase in the G2/M phase of the cell cycle was observed.
Cell cycle distribution was analyzed with flow cytometry analysis with PI staining. MCF-7 cells were treated with compounds 48 and 140 (5, 10, 25 µM) for 48 h. Following treatment, the cells were collected and fixed in cold 70% ethanol for 24 h. The fixed cells were washed with PBS and incubated with 100 µg/mL RNAse (Invitrogen, Germany) and stained with 10 µg/mL PI (Invitrogen, Germany) for 30 min at RT. A total of 10^4 cells were examined with a FACSCalibur cytometer (BD) and data was analyzed with Flowing software (version 2.5).

T47D cells = test: Apoptosis analysis (Annexin V-PE/7-AAD flow cytometry) in T47D cells; assay type: cell-based; details: T47D (mutant p53), 5, 10 and 25 µM, 72 h
Description: Since the examined compounds exerted cytotoxic activity toward cell lines harboring mutant p53, the ability of compounds 140 and 48 to induce apoptosis in T47D cells with mutant p53 was examined. […] Cell death was induced to a similar extent in cells harboring wild-type and mutant p53 (Figure 10).
Levels of apoptosis were measured by flow cytometry using the Annexin V-PE Apoptosis Detection Kit I (BD Biosciences, Belgium) according to the manufacturer’s instructions. Apoptosis was assessed after a 72 h treatment of MCF7 and T47D cells with compounds 48 and 140 in the concentrations of 5, 10 and 25 µM. Proceeding cell treatment, cells were collected, washed with PBS and stained with Annexin V-phycoerythrin (PE) and 7-amino-actinomycin (7-AAD) in Annexin V binding buffer for 15 min at RT in the dark. After staining, cells were diluted in Annexin V binding buffer and analyzed on a BD FACSCalibur flow cytometer (BD Biosciences). At total of 10^4 cells were analyzed from each sample and data were analyzed with Flowing software (version 2.5).

IC50 [2]	SMILES	IC50 [1]	G0/G1 phase population of the cell cycle (MCF-7 cells)	sub-G1 population of the cell cycle (MCF-7 cells)	apoptotic cells (Annexin V-PE) (T47D cells)	G2/M phase population of the cell cycle (MCF-7 cells; MCF-7, 25 µM)
7.8 ± 0.1 µM	Cc1cc(S(=O)(=O)N=C2NCCN2Cc2ccccc2)c(SCc2nc(N)nc(N3CCc4ccccc43)n2)cc1Cl [Compound 48]	33 ± 1 µM	significant increase	concentration-dependent increase	concentration-dependent increase	
6.9 ± 0.1 µM	Cc1cc(S(=O)(=O)N=C2NCCN2Cc2ccc(C(F)(F)F)cc2)c(SCc2nc(N)nc(N3CCN(Cc4ccccc4)CC3)n2)cc1Cl [Compound 140]	22 ± 1 µM	increased	concentration-dependent increase	concentration-dependent increase	increase
